According to patent US7557134B2, “N-(heteroaryl)-1H-indole-2-carboxamide derivatives and their use as vanilloid TRPV1 receptor ligands” (Sanofi-Aventis, priority 2005, dated 2009):
Structures can show the parent of a compound that is named as a salt.

A melting point of 195 to 197 °C was found for Cn1cnc2c(NC(=O)c3cc4cc(F)ccc4n3Cc3cccc(F)c3)cccc21 in this work.
A melting point of 187 to 189 °C was found for CCc1nc2cc(NC(=O)c3cc4cc(C(F)(F)F)ccc4n3Cc3cccc(F)c3)ccc2o1 [Compound 46, N-(2-ethylbenzoxazol-5-yl)-5-trifluoromethyl-1-[(3-fluorophenyl)methyl]-1H-indole-2-carboxamide] in this work.
A melting point of 191 to 192 °C was found for Cc1nc2cc(NC(=O)c3cc4cc(C(F)(F)F)ccc4n3Cc3cccc(F)c3)ccc2s1 in this work.
A melting point of 298 to 299 °C was found for O=C1CCc2ccc(NC(=O)c3cc4cc(C(F)(F)F)ccc4n3Cc3cccc(F)c3)cc2N1 [Compound 41, N-(2-oxo-3,4-dihydroquinol-7-yl)-5-trifluoromethyl-1-[(3-fluorophenyl)methyl]-1H-indole-2-carboxamide] in this work.
A melting point of 141 to 143 °C was found for O=C(Nc1ccc2occc2c1)c1cc2ccccc2n1-c1cccc(C(F)(F)F)c1 [Compound 8, N-(benzofuran-5-yl)-1-[3-(trifluoromethyl)phenyl]-1H-indole-2-carboxamide] in this work.
A melting point of 201 to 202 °C was found for Cc1nc2cc(NC(=O)c3cc4cc(F)ccc4n3Cc3cccc(F)c3)ccc2s1 in this work.
A melting point of 208 to 210 °C was found for O=C(Nc1ccc2ncccc2c1)c1cc2cc(F)ccc2n1Cc1cccc(F)c1 in this work.
A melting point of 90 to 92 °C was found for O=C(Nc1ccc2c(c1)CCNO2)c1cc2ccccc2n1-c1cccc(C(F)(F)F)c1 [Compound 10, N-(2,3-dihydrobenzoxazin-6-yl)-1-[3-(trifluoromethyl)phenyl]-1H-indole-2-carboxamide] in this work.
A melting point of 188 to 189 °C was found for O=C(Nc1ccc2nccnc2c1)c1cc2cc(F)ccc2n1Cc1cccc(F)c1 in this work.
A melting point of 281 to 282 °C was found for Cc1nc2cc(NC(=O)c3cc4cc(F)ccc4n3Cc3cccc(F)c3)ccc2n1C in this work.
A melting point of 178 to 180 °C was found for CC1C(=O)NOc2ccc(NC(=O)c3cc4ccccc4n3-c3cccc(C(F)(F)F)c3)cc21 (stereo not shown) [Compound 6, N-(4-methyl-3-oxo-2H-benzoxazin-6-yl)-1-[3-(trifluoromethyl)phenyl]-1H-indole-2-carboxamide] in this work.
A melting point of 139 to 141 °C was found for O=C(Nc1ccc2cnccc2c1)c1cc2cc(F)ccc2n1Cc1cccc(F)c1 in this work.
A melting point of 270 to 272 °C was found for O=C(Nc1ccc2ccncc2c1)c1cc2cc(F)ccc2n1Cc1cccc(F)c1 (as salt: HCl) in this work.
A melting point of 248 to 251 °C was found for Cn1cnc2cc(NC(=O)c3cc4cc(F)ccc4n3Cc3cccc(F)c3)ccc21 in this work.
A melting point of 214 to 216 °C was found for O=C1Cc2ccc(NC(=O)c3cc4ccccc4n3-c3cccc(C(F)(F)F)c3)cc2ON1 [Compound 11, N-(3-oxo-2H-benzoxazin-7-yl)-1-[3-(trifluoromethyl)phenyl]-1H-indole-2-carboxamide] in this work.
A melting point of 275 to 280 °C was found for O=C(Nc1ccc2nc[nH]c2c1)c1cc2cc(F)ccc2n1Cc1cccc(F)c1 (as salt: HCl) in this work.
A melting point of 146 to 147 °C was found for CN1CCCc2ccc(NC(=O)c3cc4cc(C(F)(F)F)ccc4n3Cc3cccc(F)c3)cc21 [Compound 27, N-(1-methyl-1,2,3,4-tetrahydroquinol-7-yl)-5-trifluoromethyl-1-[(3-fluorophenyl)methyl]-1H-indole-2-carboxamide] in this work.
A melting point of 195 to 200 °C was found for Cc1nc2ccc(NC(=O)c3cc4cc(F)ccc4n3Cc3cccc(F)c3)cc2[nH]1 (as salt: HCl) in this work.
A melting point of 188 to 189 °C was found for Cc1nc2cc(NC(=O)c3cc4cc(F)ccc4n3Cc3cccc(F)c3)ccc2o1 in this work.
A melting point of 191 to 192 °C was found for O=C(Nc1ccc2ncsc2c1)c1cc2cc(C(F)(F)F)ccc2n1Cc1cccc(F)c1 in this work.
A melting point of 140 to 143 °C was found for O=C(Nc1ccc2c(c1)NCCC2)c1cc2ccccc2n1-c1cccc(C(F)(F)F)c1 [Compound 4, N-(1,2,3,4-tetrahydroquinol-7-yl)-1-[3-(trifluoromethyl)phenyl]-1H-indole-2-carboxamide] in this work.
A melting point of 255 to 256 °C was found for COc1ccc2cc(C(=O)Nc3ccc4c(c3)NC(=O)CC4)n(Cc3ccc(F)cc3)c2c1 [Compound 53, N-(2-oxo-3,4-dihydroquinol-7-yl)-6-methoxy-1-[(4-fluorophenyl)methyl]-1H-indole-2-carboxamide] in this work.
